Results from patent US5688787A, “Substituted β-lactam compounds useful as hypochlesterolemic agents and processes for the preparation thereof” (priority 1996, dated 1997).
pIC50: −log10 of the molar value. Like-named read-outs stand apart in the source and are kept apart here.

What was measured:
ACAT = biological target: T1, ACAT (Rattus norvegicus, UniProt Q7TQM4); assay: ACAT Assay (in vitro); assay type: biochemical; conditions: for inhibition at 10 µM: Conc. 10 µM
T1 construct: Rat liver microsomes are used as the source of ACAT; from tissue; host or cells: rat liver microsomes
T1 sequence (Q7TQM4 1-524): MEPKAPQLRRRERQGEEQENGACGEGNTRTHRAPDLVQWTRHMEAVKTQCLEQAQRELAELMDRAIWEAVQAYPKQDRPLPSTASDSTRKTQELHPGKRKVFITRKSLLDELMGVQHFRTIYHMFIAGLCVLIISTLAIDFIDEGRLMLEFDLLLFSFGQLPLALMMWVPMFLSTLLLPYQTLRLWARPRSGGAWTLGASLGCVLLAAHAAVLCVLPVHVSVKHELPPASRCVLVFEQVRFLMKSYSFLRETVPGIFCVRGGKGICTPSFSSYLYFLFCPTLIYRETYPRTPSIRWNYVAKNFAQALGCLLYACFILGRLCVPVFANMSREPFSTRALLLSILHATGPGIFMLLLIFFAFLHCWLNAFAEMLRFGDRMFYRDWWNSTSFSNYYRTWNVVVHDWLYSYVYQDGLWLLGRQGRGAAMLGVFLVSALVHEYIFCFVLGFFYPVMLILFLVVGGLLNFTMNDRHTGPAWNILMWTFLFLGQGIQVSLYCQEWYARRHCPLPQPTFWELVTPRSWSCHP

Hyperlipidemic Hamster = assay: In Vivo Assay of Hypolipidemic Agents Using the Hyperlipidemic Hamster; conditions: Mesocricetus auratus, po, 168 h, 7 days, percent change versus control, negative = lowering; for change in vivo at 50 mg/kg: 50 mg/kg once daily oral; for change in vivo at 5 mg/kg: 5 mg/kg once daily oral; for change in vivo at 10 mg/kg: 10 mg/kg once daily oral; for change in vivo at 100 mg/kg: 100 mg/kg once daily oral
In short: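 Hamsters, six per group, were fed chow with 0.5% cholesterol for seven days and given compound once daily by oral gavage in corn oil; controls received corn oil alone. Plasma (EDTA) and liver lipids were measured at sacrifice. Values are percent change versus control, so negative means lowering.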

[1] = negative = apparent stimulation, read-out: ACAT (in vitro) % Inhib.
[2] = read-out: % Reduction (in vivo) Cholest. Esters
[3] = read-out: % Reduction (in vivo) Serum Cholest.

| SMILES | inhibition at 10 µM (ACAT; [1]) [%] | change in vivo at 50 mg/kg (Hyperlipidemic Hamster; [2]) [%] | change in vivo at 50 mg/kg (Hyperlipidemic Hamster; [3]) [%] | also measured |
| --- | --- | --- | --- | --- |
| CCOc1ccc([C@@H]2[C@@H](CCCc3ccccc3)C(=O)N2c2ccc(OC)cc2)cc1 (relative stereo) [Example 5S] | 28 | -98 | -52 | – |
| COc1cc(OC)c(N2C(=O)C(CCCc3ccccc3)C2c2ccccc2)c(OC)c1 (centres unmarked) [Example 1F] | 61 | 20 | 0 | – |
| COc1ccc(N2C(=O)[C@@H](CCCc3ccccc3)[C@H]2c2cccc(OC)c2)cc1 (relative stereo) [Example 1P] | 39 | -54 | -19 | – |
| CC[C@]1(CCCc2ccccc2)C(=O)N(c2ccc(OC)cc2)[C@H]1c1ccccc1 (relative stereo) [Example 3E] | -24 | 0 | 0 | – |
| CCCCCCCCCC[C@]1(CC)C(=O)N(c2ccc(OC)cc2)[C@H]1c1ccccc1 (stereo in doubt) [Example 3Q] | 3 | 0 | -6 | – |
| COc1ccc(N2C(=O)[C@](C)(CCc3ccccc3)[C@@H]2c2ccccc2)cc1 (relative stereo) [Example 3I] | 43 | 0 | -9 | – |
| COc1ccc(N2C(=O)[C@H](CCCc3ccccc3)[C@@H]2c2ccoc2)cc1 (relative stereo) [Example 1BE] | 30 | -21 | -10 | – |
| COc1ccc(N2C(=O)[C@@H](CCCc3ccccc3)[C@H]2c2ccc(N)cc2)cc1 (relative stereo) [Example 8B] | -5 | -35 | -9 | – |
| COc1ccc(N2C(=O)[C@@H](CCCc3ccccc3)[C@@H]2c2ccc(CO)cc2)cc1 (relative stereo) [Example 15] | -6 | -46 | -21 | – |
| COc1ccc(N2C(=O)[C@H](CCCc3ccccc3)[C@@H]2c2ccc([N+](=O)[O-])cc2)cc1 (relative stereo) [Example 1H] | 57 | -51 | -21 | – |
| COc1ccc(N2C(=O)[C@@H](CCCc3ccccc3)[C@H]2c2ccc(C=O)cc2)cc1 (relative stereo) [Example 16] | 42 | -29 | -25 | – |
| CC[C@@H]1C(=O)N(c2ccc(OC)cc2)[C@H]1c1ccc(N)cc1 (relative stereo) [Example 8A] | -17 | 0 | 0 | – |
| COc1ccc(N2C(=O)[C@](CCCc3ccccc3)(c3ccccc3)[C@@H]2c2ccccc2)cc1 (relative stereo) [Example 3B] | 84 | -16 | -11 | – |
| COc1ccc([C@H]2[C@@H](CCCCc3ccccc3)C(=O)N2c2ccc(OC)cc2)cc1 (relative stereo) [Example 1CI] | 26 | -23 | -8 | – |
| COc1ccc(N2C(=O)[C@@H](CCCc3ccccc3)[C@@H]2c2ccccc2)cc1 (relative stereo) [Example 1C] | 22 | -15 | -6 | – |
| COc1ccc(N2C(=O)[C@H](CCCc3ccccc3)[C@@H]2c2ccco2)cc1 (relative stereo) [Example 1BC] | -2 | 0 | 0 | – |
| COc1ccc(N2C(=O)[C@H](CCCc3ccccc3)[C@@H]2c2ccsc2)cc1 (relative stereo) [Example 1BJ] | 56 | 0 | 0 | – |
| COc1ccc(N2C(=O)[C@H](CCCc3ccccc3)[C@H]2c2ccc(CO[Si](C)(C)C(C)(C)C)cc2)cc1 (relative stereo) [Example 1AS] | 83 | -19 | 0 | pIC50 (ACAT): 6.00 |

| SMILES | inhibition at 10 µM (ACAT; [1]) [%] | change in vivo at 50 mg/kg (Hyperlipidemic Hamster; [2]) [%] | change in vivo at 50 mg/kg (Hyperlipidemic Hamster; [3]) [%] | also measured |
| --- | --- | --- | --- | --- |
| CC[C@@]1(c2ccccc2)C(=O)N(c2ccc(OC)cc2)[C@H]1c1ccccc1 (relative stereo) [Example 1Z] | -15 | -39 | -15 | – |
| COc1ccc(N2C(=O)[C@H](CCCc3ccccc3)[C@H]2c2ccco2)cc1 (relative stereo) [Example 1BD] | 17 | -25 | 0 | – |
| COc1ccc(N2C(=O)[C@H](CCCc3ccccc3)[C@H]2c2ccc(C(F)(F)F)cc2)cc1 (relative stereo) [Example 1BG] | 3 | 0 | 12 | – |
| CC[C@@]1(CCCc2ccccc2)C(=O)N(c2ccc(OC)cc2)[C@H]1c1ccccc1 (relative stereo) [Example 3A] | 33 | -29 | -12 | – |
| COc1ccc(N2C(=O)[C@H](CCCc3ccccc3)[C@@H]2c2ccccc2)cc1 (relative stereo) [Example 1B] | 28 | 0 | 0 | – |
| COc1ccc([C@H]2[C@@H](CCCCCCc3ccccc3)C(=O)N2c2ccc(OC)cc2)cc1 (relative stereo) [Example 1CE] | 15 | -17 | -19 | – |
| CC[C@]1(CCc2ccccc2)C(=O)N(c2ccc(OC)cc2)[C@H]1c1ccccc1 (relative stereo) [Example 3H] | 66 | 31 | -10 | – |
| COc1ccc(N2C(=O)[C@H](CCCc3ccccc3)[C@H]2c2ccncc2)cc1 (relative stereo) [Example 1AR] | -41 | -25 | -22 | – |
| COc1ccc(N2C(=O)[C@@H](CCCc3ccccc3)[C@H]2c2ccc(O)cc2)cc1 (relative stereo) [Example 1L] | 20 | -75 | -31 | change in vivo at 5 mg/kg (Hyperlipidemic Hamster; [2]): -30%; change in vivo at 5 mg/kg (Hyperlipidemic Hamster; [3]): -25%; change in vivo at 10 mg/kg (Hyperlipidemic Hamster; [2]): -34%; change in vivo at 10 mg/kg (Hyperlipidemic Hamster; [3]): -22% |
| COc1ccc(N2C(=O)[C@@H](CCCc3ccccc3)[C@H]2c2ccc(S(C)(=O)=O)cc2)cc1 (relative stereo) [Example 17A] | 38 | -25 | -11 | – |
| COc1ccc(N2C(=O)[C@H](CCCc3ccccc3)[C@H]2c2ccc(C=O)cc2)cc1 (relative stereo) [Example 16A] | 55 | -53 | -30 | – |
| COc1ccc(N2C(=O)[C@H](CCCc3ccccc3)[C@@H]2c2ccc(OC)c(OC)c2)cc1 (relative stereo) [Example 1BB] | -16 | 0 | 0 | – |
| CC[C@]1(CCCc2ccccc2)C(=O)N(c2ccc(OC)cc2)[C@H]1c1ccc(OC)cc1 (relative stereo) [Example 3M] | 13 | 0 | 0 | – |
| COc1ccc(N2C(=O)[C@](C(=O)Cc3ccccc3)(c3ccccc3)[C@@H]2c2ccccc2)cc1 (relative stereo) [Example 1A] | – | – | – | inhibition at 25 µM (ACAT; Conc. 25 µM, negative = apparent stimulation, read-out: ACAT (in vitro) % Inhib.): 83%; change in vivo at 100 mg/kg (Hyperlipidemic Hamster; [2]): -26%; change in vivo at 100 mg/kg (Hyperlipidemic Hamster; [3]): -10% |
| COc1ccc(N2C(=O)[C@H](CCCc3ccccc3)[C@@H]2c2ccc(C)cc2)cc1 (relative stereo) [Example 1BM] | 38 | -21 | 0 | – |
| COc1ccc([C@@H]2N(c3ccc(OC)cc3)C(=O)[C@@]2(Cc2ccccc2)c2ccccc2)cc1 (relative stereo) [Example 7AH] | -5 | 16 | 16 | – |
| CCOc1ccc(N2C(=O)[C@H](CCCc3ccccc3)[C@@H]2c2ccc(OC)cc2)cc1 (relative stereo) [Example 35B] | 65 | -99 | -53 | – |
